Patent publication US20230255954A1, “INTERLEUKIN 33 (IL-33) INHIBITION FOR TREATMENT OF CANCER, FIBROSIS AND INFLAMMATION” (The General Hospital Corporation, priority 2020, published 2023)

How the values were obtained:
[1] = test system: DNFB treated mice back skin; test: DNFB chronic skin inflammation model with pitavastatin; format: in vivo, mouse
Procedure: Four- to six-week old male and female mice were shaved on their abdomen and sensitized to 50 μL 0.5% 1-Fluoro-2,4-dinitrobenzene (DNFB, Millipore Sigma, St. Louis, Mo., catalog no. 42085) dissolved in acetone plus olive oil at 3:1 ratio (refer to as acetone). Two days after first sensitization, mice were re-sensitized to 50 μL 0.25% DNFB on their abdomen. After 5 days, mice were challenged with 100 μL 0.25% DNFB on their back skin, which was repeated three times per week for 22 days. Skin rash was monitored over the duration of the study.
Mice were treated with 0.5 mM pitavastatin in 200 μL 70% ethanol or 200 μL 70% ethanol alone to their back skin twice a week. Pitavastatin/70% ethanol treatments were given in DNFB doses.
Tissue samples were collected and fixed in 4% paraformaldehyde (Millipore Sigma, catalog no. P6148) overnight at 4° C. Next, tissues were dehydrated in ethanol, processed and embedded in paraffin. 5 μm sections paraffin-embedded tissues were placed on slides, deparaffinized and stained with H&E or toluidine blue (for mast cell detection). For immunohistochemistry, antigen retrieval was performed in 500 μL of antigen unmasking solution (VECTOR Laboratories, Burlingame, Calif., catalog no. H3300) diluted in 50 mL water using Cuisinart pressure cooker for 20 min at high pressure. Slides were washed three times for three minutes each in 1×TBS with 0.025% Triton X-100. Sections were blocked with 1% bovine serum albumin (Thermo Fisher Scientific, catalog no. BP1600) and 5% goat serum (Millipore Sigma, catalog no. G9023) for 1 hour. Slides were stained overnight at 4° C. with a primary antibody diluted in TBS containing 1% BSA (Appendix Table S2). The following day, slides were washed as above and incubated in 100 μL biotinylated secondary antibody (VECTOR Laboratories, catalog no. PK-6200) for 30 min. After washing, slides were incubated with 100 μL mixture of reagent A and B from VECTASTAIN Elite ABC universal kit Peroxidase (VECTOR Laboratories, catalog no. PK-6200) for 30 min. After washing, slides were incubated with 100 μL ImmPACT DAB chromogen stating (VECTOR Laboratories, catalog no. SK-4105) for a few minutes. Finally, slides dehydrated in ethanol and xylene and mounted with a coverslip using 3 drops of mounting media.
Next, we also investigated effect of pitavastatin in vivo chronic inflammation model. […] Next, we studied the effect of pitavastatin treatment on chronic inflammation in mice. […] Furthermore, both IL-33 and nuclear IRF3 were reduced in same epithelial region of DNFB plus pitavastatin versus DNFB plus carrier treated mice (FIGS. 12D and E). Thus, pitavastatin is a small molecule IL-33 inhibitor that suppresses skin inflammation.

[2] = test system: Il33 expression induced by Poly (I:C) in Pam212 cells; test: Il33 RNA by qPCR in Poly (I:C)-treated Pam212 cells; format: cell-based, mouse
Procedure: Pam212 cells were grown at 37° C. in DMEM (Thermo Fisher Scientific, Waltham, Mass., catalog no. 11995065) supplemented with 10% fetal bovine serum (Thermo Fisher Scientific, catalog no. 26140079), 1× penicillin-streptomycin-glutamine (Thermo Fisher Scientific, catalog no. 10378016), 1×MEM non-essential amino acids solution (Thermo Fisher Scientific, catalog no. 11140050), 1×HEPES (Thermo Fisher Scientific, catalog no. 15630080) and 0.1% 2-Mercaptoethanol (Thermo Fisher Scientific, catalog no. 21985023). […]
Mouse dorsal skin samples were homogenized and lysed in RLT lysis solution (QIAGEN, catalog no. 79216)/0.1% MeOH using Mini-BeadBeater-8 (BioSpec Products, Inc., Bartlesville, Okla.). Total RNA was extracted using an RNeasy micro kit and quantified using NanoDrop ND-1100 (NanoDrop Technologies, Wilmington, Del.). cDNA samples were synthesized from 1 μg of total RNA using Invitrogen SuperScripts III Reverse Transcriptase (Thermo Fisher Scientific, catalog no. 18080085). Expression levels of all cDNA samples were determined with LightCycler 480 system (Roche Molecular Systems Inc., Pleasanton, Calif.) using TaqMan Universal Master Mix II (Thermo Fisher Scientific, catalog no. 44-400-40). […]

[3] = DNFB plus pitavastatin versus DNFB plus carrier
[4] = topical DNFB plus pitavastatin vs DNFB plus carrier

O=C(O)C[C@H](O)C[C@H](O)/C=C/c1c(C2CC2)nc2ccccc2c1-c1ccc(F)cc1 [pitavastatin]
reduced: IL-33 in epithelial region (staining) [1, 3] | nuclear IRF3 in epithelial region (staining) [1, 3] | epidermal thickness [1, 4] | mast cell infiltration [1, 4]
decreased: IL-33 expression, RNA level ([1]; DNFB treated mice skin) | IL-33 expression, protein level ([1]; DNFB treated mice skin) | p-IRF3 ([1]; compared to only DNFB treated group) | Il33 RNA level [2]
mild chronic inflammation: chronic inflammation in back skin ([1]; 0.5 mM pitavastatin in 200 μL 70% ethanol on back skin twice a week, compared to only DNFB treated mice)
